Experimental data reported in patent publication US20030162165A1, “Chemical signal enhancement of dynamic intensity-based intracellular protein-and fluorophore-based redistribution assays for drug-screening” (priority 2003, published 2003).
Entries after “also recorded” stand apart in the source; their conditions may differ.

How the values were obtained:
[1] = tested on: human isoform of PKC (protein kinase C) beta 1 tagged with GFP; test: Type 1 redistribution assay (PKC beta 1-GFP, ATP stimulus) on FLIPR; type: cell-based; conditions: for increase in the measurable response, type 1 redistribution: summary, enhancer added to extracellular medium, FLIPR
Protocol: (§1) The CHO (Chinese hamster ovary) cell line stably expressing the human isoform of PKC (protein kinase C) beta 1 tagged with GFP (green fluorescent protein)in its C-terminal end and the human RACK1 (receptor for activated C kinase) was cultured in 96-well microtiter plates (Packard View-Plate). After 20 min preincubation in KRW (experimental buffer; A modified Krebs-Ringer buffer containing (in mM): NaCl 140, KCl 3.6, NaH2PO4 0.5, MgSO4 0.5, NaHCO3 2.0, CaCl2 1.5 and HEPES 10, D-glucose 5 (pH 7.4, titrated with 1M NaOH)) the cell plate was supplemented with a concentration gradient of Trypan Blue at 0, 10, 50, 100 and 200 μM (4 wells per compound and concentration) and placed in the FLIPR™. Subsequently the cells were stimulated in the FLIPR™ with 100 μM ATP. This gives a Type 1 redistribution response (see FIG. 6) in these cells where the redistribution can be quantified as a reduction in fluorescence intensity, as PKC beta 1 moves from the cytosol to the membrane, during the first 1-2 minutes of stimulation. […] All data were corrected for background by subtraction of a background trace based on 16 individual background traces and normalized to 1 at the point of addition of 100 μM ATP.
as §1, with “Acid Red 88” for “Trypan Blue”
The CHO (Chinese hamster ovary) cell line stably expressing the human isoform of PKC (protein kinase C) beta 1 tagged with GFP (green fluorescent protein) in its C-terminal end and the human RACK1 (receptor for activated C kinase) was cultured in 96-well microtiter plates (Packard View-Plate). After 20 min preincubation in KRW (experimental buffer; A modified Krebs-Ringer buffer containing (in mM): NaCl 140, KCl 3.6, NaH2PO4 0.5, MgSO4 0.5, NaHCO3 2.0, CaCl2 1.5 and HEPES 10, D-glucose 5 (pH 7.4, titrated with 1M NaOH)) the cell plate was supplemented with a concentration gradient of Trypan Blue, Acid Red 88 and Orange G at 0, 10, 50, 100 and 200 μM (4 wells per compound and concentration) and placed in the FLIPR™. Subsequently the cells were stimulated in the FLIPR™ with 100 μM ATP. This gives a Type 1 redistribution response (see FIG. 6) in these cells where the redistribution can be quantified as a reduction in fluorescence intensity, as PKC beta 1 moves from the cytosol to the membrane, during the first 1-2 minutes of stimulation. All data were corrected for background by subtraction of a background trace based on 16 individual background traces and normalized to 1 at the point of addition of 100 μM ATP. The data points represent the average of four determinations+SD. […]

[2] = tested on: PH-domain (pleckstrin homology) of the human isoform of PLC (phospho-lipase C) delta tagged with GFP; test: Type 3 redistribution assay (PLC delta PH-domain-GFP, ATP stimulus) on FLIPR; type: cell-based; conditions: for increase in the measurable response, type 3 redistribution: summary, enhancer added to extracellular medium, FLIPR
Protocol: The CHO (Chinese hamster ovary) cell line stably expressing the PH-domain (pleckstrin homology) of the human isoform of PLC (phospho-lipase C) delta tagged with GFP (green fluorescent protein) in its C-terminal end was cultured in 96-well microtiter plates (Packard View-Plate). After 20 min preincubation in KRW (experimental buffer; A modified Krebs-Ringer buffer containing (in mM): NaCl 140, KCl 3.6, NaH2PO4 0.5, MgSO4 0.5, NaHCO3 2.0, CaCl2 1.5 and HEPES 10, D-glucose 5 (pH 7.4, titrated with 1M NaOH)) the cell plate was supplemented with 100 μM Trypan Blue in one half and 10 μM Acid Red 88 in the other half of the wells and placed in the FLIPR™. Subsequently the cells were stimulated in the FLIPR™ with a range of ATP concentrations starting with 300 μM and lower by a threefold reduction of concentration in each dilution step. This gives a Type 3 redistribution response (see FIG. 6) in these cells where the redistribution can be quantified as an increase in fluorescence intensity, as the PH-domain of PLC delta 1 moves from the membrane to the cytosol, during the first 1-2 minutes of stimulation. FIG. 4 summarizes this experiment. All data were corrected for background by subtraction of a background trace based on 4 individual background traces. The data points represent the average of four determinations+SD. The data were extracted as the maximal change during the first minute of stimulation (Smax-Smin).
The CHO (Chinese hamster ovary) cell line stably expressing the PH-domain (pleckstrin homology) of the human isoform of PLC (phospho-lipase C) delta tagged with GFP (green fluorescent protein) in its C-terminal end was cultured in 96-well microtiter plates (Packard View-Plate). After 20 min preincubation in KRW (experimental buffer; A modified Krebs-Ringer buffer containing (in mM): NaCl 140, KCl 3.6, NaH2PO4 0.5, MgSO4 0.5, NaHCO3 2.0, CaCl2 1.5 and HEPES 10, D-glucose 5 (pH 7.4, titrated with 1M NaOH)) the cell plate was supplemented with 100 μM Trypan Blue in one half and 20 μM Acid Red 88 in the other half of the wells and placed in the FLIPR. Subsequently the cells were stimulated in the FLIPR with 100 μM ATP. This gives a Type 3 redistribution response (see FIG. 6) in these cells where the redistribution can be quantified as an increase in fluorescence intensity, as the PH-domain of PLC delta 1 moves from the membrane to the cytosol, during the first 1-2 minutes of stimulation. FIG. 4 summarizes this experiment. It can be seen that Acid Red 88 in this case maximally gives about a 6-7-fold increase in signal over the one obtained with Trypan Blue.

[3] = tested on: mouse cPKA (catalytic subunit of protein kinase A) tagged with GFP; test: Type 2 redistribution assay (cPKA-GFP, Forskolin stimulus) on FLIPR; type: cell-based; conditions: for effect on type 2 redistribution response: CHO cells, concentration gradient of dye
Protocol: The CHO (Chinese hamster ovary) cell line stably expressing the mouse cPKA (catalytic subunit of protein kinase A) tagged with GFP (green fluorescent protein) in its N-terminal end was cultured in 96-well microtiter plates (Packard View-Plate). After 20 min preincubation in KRW (experimental buffer; A modified Krebs-Ringer buffer containing (in mM): NaCl 140, KCl 3.6, NaH2PO4 0.5, MgSO4 0.5, NaHCO3 2.0, CaCl2 1.5 and HEPES 10, D-glucose 5 (pH 7.4, titrated with 1M NaOH)) the cell plate was supplemented with a concentration gradient of Trypan Blue and Acid Red 88 (4 wells per compound and concentration) and placed in the FLIPR™. Subsequently the cells were stimulated in the FLIPR™ with 10 μM Forskolin. This gives a Type 2 redistribution response (see FIG. 6) in these cells where the redistribution can be quantified as an increase in fluorescence intensity, as cPKA moves from aggregates in the cytosol to a dispersed form in the cytosol, during the first 2-5 minutes of stimulation. All data were corrected for background by subtraction of a background trace based on 16 individual background traces and normalized to 1 at the point of addition of 10 μM Forskolin. The data points represent the average of four determinations+SD. The data were extracted as the maximal change in fluorescence during the first five minutes of stimulation. Negative values depict a decrease In fluorescence during the response and positive values and Increase.
The CHO (Chinese hamster ovary) cell line stably expressing the mouse cPKA (catalytic subunit of protein kinase A) tagged with GFP (green fluorescent protein) in its N-terminal end was cultured in 96-well microtiter plates (Packard View-Plate). After 20 min preincubation in KRW (experimental buffer; A modified Krebs-Ringer buffer containing (in mM): NaCl 140, KCl 3.6, NaH2PO4 0.5, MgSO4 0.5, NaHCO3 2.0, CaCl2 1.5 and HEPES 10, D-glucose 5 (pH 7.4, titrated with 1M NaOH)) the cell plate was supplemented with a concentration gradient of Trypan Blue and Acid Red 88 at 0, 10, 50, 100 and 200 μM during the experimental fluorescence recording (4 wells per compound and concentration) in the FLIPR™. […] The data were extracted as the absolute fluorescence change 30 seconds after addition of the two compounds.
The CHO (Chinese hamster ovary) cell line stably expressing the mouse cPKA (catalytic subunit of protein kinase A) tagged with GFP (green fluorescent protein) in its N-terminal end was cultured in 96-well microtiter plates (Packard View-Plate). […] This gives a Type 2 redistribution response (see FIG. 6) in these cells where the redistribution can be quantified as an increase in fluorescence intensity, as cPKA moves from aggregates in the cytosol to a dispersed form in the cytosol, during the first 2-5 minutes of stimulation.

[4] = cited from earlier work; for Molar Absorptivity 488 nm: at 488 nm; for Molar Absorptivity 488 nm / Molar Absorptivity 500-550 nm: estimated from published spectra; for Molar Absorptivity 500-550 nm: average over 500-550 nm; for Wavelength of maxiumum absorbance: published spectra
Solubility in water = type: physicochemical

effect on type 3 redistribution response ([2]; 100 μM Trypan Blue, response barely detectable without the compound)	solubility (Solubility in water) [µg/mL]	SMILES	maximal enhancement of the response compared to the control ([1]; at 50 μM enhancer, CHO cells, 100 μM ATP)	effect on overall basal fluorescence, type 1 redistribution assay ([1]; concentration dependent, 0-200 μM, no stimulus (FIG. 7))	increase in the measurable response, type 1 redistribution [1]	increase in signal over the one obtained with Trypan Blue, type 3 redistribution ([2]; maximal, 20 μM Acid Red 88 vs 100 μM Trypan Blue, CHO cells, ATP)	increase in the measurable response, type 3 redistribution [2]	effect on overall basal fluorescence, type 2 redistribution assay ([3]; 0-200 μM, no stimulus (FIG. 10))	effect on type 2 redistribution response ([3]; 10 μM Forskolin)	effect on type 2 redistribution response at higher concentrations ([3]; above 10 μM, 10 μM Forskolin)	Molar Absorptivity 488 nm [4] [mol^−1-cm^−1]	Molar Absorptivity 500-550 nm [4] [mol^−1-cm^−1]	Wavelength of maxiumum absorbance [4] [nm]	enhancing effect on type 1 redistribution response ([1]; CHO cells, 100 μM ATP, 0-200 μM dye)	maximal enhancement of the response compared to the control ([1]; at 200 μM enhancer, CHO cells, 100 μM ATP)
–	–	O=S(=O)([O-])c1ccc(N=Nc2c(O)ccc3ccccc23)c2ccccc12.[Na+] [Acid Red 88]	about 7 fold	reduces overall basal fluorescence	6-7 fold	6-7 fold	7-10 fold	did not reduce the overall basal fluorescence	completely abolished the response at the lowest concentration	reversed it to a fluorescence decrease	16986	14964	505	–	–
–	–	O=S(=O)(O)c1cc(S(=O)(=O)O)c2c(/N=N/c3ccccc3)c(O)ccc2c1 [Orange G]	–	–	–	–	–	–	–	–	13571	4524	475	enhancing properties up to a concentration of 100 μM; also recorded: inferior to Trypan Blue and much inferior to Acid Red 88	–
clearly give a detectable signal	< 100	Cc1cc(-c2ccc(/N=N/c3c(S(=O)(=O)O)cc4cc(S(=O)(=O)O)cc(N)c4c3O)c(C)c2)ccc1/N=N/c1c(S(=O)(=O)O)cc2cc(S(=O)(=O)O)cc(N)c2c1O [Trypan Blue]	–	–	2-3 fold	–	1-3 fold	–	reduced it somewhat at higher concentrations; also recorded: no enhancing effect	–	16014	34556	607	–	about 3 fold
